Marks after values point to notes of the source that are not given here. Where a SMILES comes first, the peptide text is derived from it. Bridges are numbered along the chain shown (N, C = ends). [ ]: non-standard residue; d: D form. R8 = C=CCCCCCC[C@@](C)(N)C(=O)O; S5 = C=CCCC[C@](C)(N)C(=O)O
Assays:
MCF10A breast cells = assay: Cell viability assay (MTT), MCF10A; type: cell-based, human
Excerpt: Fig. 1 Hydrocarbon stapling leads to increased EJ1 activity in comparison to HER-directed monoclonal therapies. a EJ1 sequence with PTD4 domain (underlined) corresponding to EGFR juxtamembrane domain sequence 643–663. Stabilized alpha helix (SAH) variations 1–5 beneath, with asterisks (*) indicating sites of staple. Control peptide (CP) with altered residues indicated by double underline. Stapled control (5) asterisks (*) indicate sites of staple. b Cartoon representation of EJ1 structure, with staple variation 5 highlighted. Positively charged residues indicated in blue, negatively charged residues in red. c Cartoon representation of CP structure, with staple variation highlighted. d Cell viability assay performed in MDA-MB-468 cells after 24 h comparing unstapled EJ1 versus staple variations SAH1, SAH4, and SAH5, with increasing concentrations. e Visualization of MDA-MB-468 cells untreated, treated with 10 µM EJ1, and 10 µM SAH5-EJ1 after 60 min. Scale bars represent 50 µm. f–h Cell viability assay performed in MDA-MB-468, MCF10A, or CHO cells over 3 days comparing treatment with Sapitinib (blue lines), SAH5-EJ1 (red lines), and SAH5-CP (grey lines). […] Absorbance was read at 540 nm by plate reader (uQuant, Bio-Tek Instruments). P-values were calculated from a one-way ANOVA.

[1] = tested on: SUM149 inflammatory breast cancer cells; type: cell-based; conditions: SUM149, 10 µM, 3 days
Method: 1000–3000 cells were plated in 96-well plates (Falcon; Corning, NY) and allowed to adhere for 24–48 h prior to therapeutic introduction. Compounds were added and incubated on cells for 3 days in serum-containing media, followed by 2 h treatment with MTT (Sigma M5655) with the resulting formazan solubilized in DMSO. Absorbance was read at 540 nm by plate reader (uQuant, Bio-Tek Instruments). P-values were calculated from a one-way ANOVA.
Fig. 4 SAH5-EJ1 effectively treats models of basal and inflammatory breast cancers while increasing survival. a Changes in tumor burden in breast cancer PDX mouse model TM01278 with various concentrations of intravenous SAH5-EJ1. Control represents water as a vehicle control. *p < 0.05 (Control vs 1 µg/g); **p < 0.01 (Control vs 1 µg/g and vs 10 µg/g). N = 6 for each condition. b Kaplan–Meier curve of breast PDX mouse model treated with control (blue) or either 1 or 10 µg/g SAH5-EJ1 (green and red, respectively) (red asterisks indicate time point at which mice could no longer receive injections due to site toxicity). Data shown represent mean. N = 6 for all groups. c Cell viability assay performed in SUM149 cells over 3 days comparing treatment with Sapitinib (blue) to SAH5-EJ1 (red) and SAH5-CP (grey). Solid lines represent 24 h; dashed lines represent 72 h. Data shown represent mean ± percent difference of assays performed in triplicate. d Kaplan–Meier curve of inflammatory breast cancer SUM149-injected mouse model treated with injected control (water) (blue) or either 0.5 or 5 µg/g SAH5-EJ1 (green and red, respectively). Data shown represent mean. N = 8 for all groups. e Changes in tumor burden in SUM149-generated tumors with various doses of SAH5-EJ1. Control represents water (blue). Arrow indicates transition from intravenous (IV) SAH5-EJ1 injections to intraperitoneal (IP) on day 66. **p < 0.01 (Control vs 0.5 µg/g and vs 5 µg/g). Data shown represent mean ± standard deviation. N = 8 for all groups. f Images of mouse tumors taken on Day 116. Arrowheads indicate tumor site. Representative images selected. […]

[2] = 28-day toxicity study: clinical chemistry; type: in vivo, CD-1 mice; conditions: day 29, mean ± SD
Method: Toxicology was performed by IITRI. The study was conducted in compliance with the US Food and Drug Administration (FDA) good laboratory practice (GLP) Regulations (Code of Federal Regulations Title 21 Part 58) to evaluate the toxicokinetics, local tolerability, immunogenicity, and potential toxicity of SAH5-EJ1 following three times per week intravenous (IV) dosing for 28 days in mice. Male and female CD-1 IGS [Crl:CD1(ICR)] mice (135 per sex) were received from Wilmington, MA-based Charles River Laboratories, Inc.’s Kingston facility (Stone Ridge, NY).

CC[C@H](C)[C@H](NC(=O)[C@H](Cc1c[nH]cn1)NC(=O)[C@H](CCCNC(=N)N)NC(=O)[C@H](CCCNC(=N)N)NC(=O)[C@H](CCCNC(=N)N)NC(=O)[C@H](CCSC)NC(=O)[C@H](Cc1ccccc1)NC(=O)[C@H](C)NC(=O)[C@H](CCCNC(=N)N)NC(=O)[C@H](C)NC(=O)[C@H](CCC(N)=O)NC(=O)[C@H](CCCNC(=N)N)NC(=O)[C@H](C)NC(=O)[C@H](C)NC(=O)[C@H](C)NC(=O)[C@H](CCCNC(=N)N)NC(=O)[C@H](C)NC(=O)[C@@H](N)Cc1ccc(O)cc1)C(=O)N[C@H](C(=O)N[C@@H](CCCNC(=N)N)C(=O)N[C@@H](CCCCN)C(=O)N[C@@H](CCCNC(=N)N)C(=O)N[C@]1(C)CCCCCCC=CCCC[C@@](C)(C(=O)N[C@@H](CCCNC(=N)N)C(=O)N[C@@H](CCC(=O)O)C(N)=O)NC(=O)[C@H](CCC(N)=O)NC(=O)[C@H](CC(C)C)NC(=O)[C@H](CC(C)C)NC(=O)[C@H](CCCNC(=N)N)NC(=O)[C@H](CCCNC(=N)N)NC(=O)[C@H](CC(C)C)NC1=O)C(C)C [SAH5-EJ1] (H-YARAAARQARAFMRRRHIVRKR[R8]LRRLLQ[S5]RE-NH2; staple 23-30)
concentration at which complete cell death was observed (MCF10A breast cells): 10 µM
cell viability [1]: zero
ALP ([2]; female, 5 mg/kg, N = 5): 88 ± 33.2 IU/L
ALT ([2]; female, 5 mg/kg, N = 5): 79 ± 35.0 IU/L
AST ([2]; female, 5 mg/kg, N = 5): 80 ± 8.3^a IU/L
BUN ([2]; female, 5 mg/kg, N = 5): 19 ± 2.2 mg/dL
TBIL ([2]; female, 5 mg/kg, N = 5): 0.2 ± 0.05 mg/dL
ALP ([2]; female, 10 mg/kg, N = 5): 70 ± 48.4 IU/L
ALT ([2]; female, 10 mg/kg, N = 5): 61 ± 18.5 IU/L
AST ([2]; female, 10 mg/kg, N = 5): 83 ± 19.0 IU/L
BUN ([2]; female, 10 mg/kg, N = 5): 19 ± 3.0 mg/dL
TBIL ([2]; female, 10 mg/kg, N = 5): 0.1 ± 0.05 mg/dL
ALP ([2]; female, 15 mg/kg, N = 4): 62 ± 18.4 IU/L
ALT ([2]; female, 15 mg/kg, N = 4): 90 ± 27.2 IU/L
AST ([2]; female, 15 mg/kg, N = 4): 93 ± 12.5 IU/L
BUN ([2]; female, 15 mg/kg, N = 4): 22 ± 2.5 mg/dL
TBIL ([2]; female, 15 mg/kg, N = 4): 0.1 ± 0^b mg/dL
ALP ([2]; male, 5 mg/kg, N = 4): 68 ± 13.8 IU/L
ALT ([2]; male, 5 mg/kg, N = 4): 124 ± 71.5 IU/L
AST ([2]; male, 5 mg/kg, N = 4): 92 ± 28.6 IU/L
BUN ([2]; male, 5 mg/kg, N = 4): 26 ± 2.2 mg/dL
TBIL ([2]; male, 5 mg/kg, N = 4): 0.2 ± 0.05 mg/dL
ALP ([2]; male, 10 mg/kg, N = 5): 73 ± 19.7 IU/L
ALT ([2]; male, 10 mg/kg, N = 5): 96 ± 28.3 IU/L
AST ([2]; male, 10 mg/kg, N = 5): 83 ± 23.6 IU/L
BUN ([2]; male, 10 mg/kg, N = 5): 31 ± 7.3 mg/dL
TBIL ([2]; male, 10 mg/kg, N = 5): 0.2 ± 0.04 mg/dL
ALP ([2]; male, 15 mg/kg, N = 4): 58 ± 10.5 IU/L
ALT ([2]; male, 15 mg/kg, N = 4): 67 ± 32.3 IU/L
AST ([2]; male, 15 mg/kg, N = 4): 63 ± 13.5 IU/L
BUN ([2]; male, 15 mg/kg, N = 4): 23 ± 2.9 mg/dL
TBIL ([2]; male, 15 mg/kg, N = 4): 0.2 ± 0.05 mg/dL
